Legend:
Type in all cases: in vivo
Glycine max [1] = assay: Herbicidal activity, postemergence test (Example 66); details: post; 1000 g/ha; assessed visually twenty days after spraying
Method in brief: (§1)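 Damage is graded by eye on a linear 0-9 scale twenty days after treatment, with untreated sown soil or untreated seedlings as reference. The spray, 1000 g/ha in 900 L/ha from an acetone/0.4% Triton X-155 stock diluted in water, goes onto prepared horticultural loam or young plants.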

Beta vulgaris [2] = assay: as above; set-up: key: A rating of 0 indicates growth as untreated control; a rating of 9 indicates death; details: post; 1000 g/ha; assessed visually twenty days after spraying
Method in brief: as §1

Echinochloa crus-galli [3] = assay: as above; set-up: key: A rating of 0 indicates growth as untreated control; a rating of 9 indicates death; details: post; 1000 g/ha; assessed visually twenty days after spraying
Method in brief: as §1

Sinapsis alba [4] = assay: as above; set-up: key: A rating of 0 indicates growth as untreated control; a rating of 9 indicates death; details: post; 1000 g/ha; assessed visually twenty days after spraying
Method in brief: as §1

Oryza sativa [5] = assay: as above; set-up: key: A rating of 0 indicates growth as untreated control; a rating of 9 indicates death; details: post; 1000 g/ha; assessed visually twenty days after spraying
Method in brief: as §1

Zea mays [6] = assay: as above; set-up: key: A rating of 0 indicates growth as untreated control; a rating of 9 indicates death; details: post; 1000 g/ha; assessed visually twenty days after spraying
Method in brief: as §1

Avena fatua [7] = assay: as above; set-up: key: A rating of 0 indicates growth as untreated control; a rating of 9 indicates death; details: post; 1000 g/ha; assessed visually twenty days after spraying
Method in brief: as §1

Linum usitatissimum [8] = assay: as above; set-up: key: A rating of 0 indicates growth as untreated control; a rating of 9 indicates death; details: post; 1000 g/ha; assessed visually twenty days after spraying
Method in brief: as §1

Beta vulgaris [9] = assay: Herbicidal activity, preemergence test (Example 66); set-up: key: A rating of 0 indicates growth as untreated control; a rating of 9 indicates death; details: pre; 1000 g/ha; assessed visually twenty days after spraying
Method in brief: as §1

Echinochloa crus-galli [10] = assay: as above; set-up: key: A rating of 0 indicates growth as untreated control; a rating of 9 indicates death; details: pre; 1000 g/ha; assessed visually twenty days after spraying
Method in brief: as §1

Sinapsis alba [11] = assay: as above; set-up: key: A rating of 0 indicates growth as untreated control; a rating of 9 indicates death; details: pre; 1000 g/ha; assessed visually twenty days after spraying
Method in brief: as §1

Glycine max [12] = assay: as above; set-up: key: A rating of 0 indicates growth as untreated control; a rating of 9 indicates death; details: pre; 1000 g/ha; assessed visually twenty days after spraying
Method in brief: as §1

Oryza sativa [13] = assay: as above; set-up: key: A rating of 0 indicates growth as untreated control; a rating of 9 indicates death; details: pre; 1000 g/ha; assessed visually twenty days after spraying
Method in brief: as §1

Zea mays [14] = assay: as above; set-up: key: A rating of 0 indicates growth as untreated control; a rating of 9 indicates death; details: pre; 1000 g/ha; assessed visually twenty days after spraying
Method in brief: as §1

Avena fatua [15] = assay: as above; set-up: key: A rating of 0 indicates growth as untreated control; a rating of 9 indicates death; details: pre; 1000 g/ha; assessed visually twenty days after spraying
Method in brief: as §1

Linum usitatissimum [16] = assay: as above; set-up: key: A rating of 0 indicates growth as untreated control; a rating of 9 indicates death; details: pre; 1000 g/ha; assessed visually twenty days after spraying
Method in brief: as §1

Row | SMILES | herbicidal effects on a 0-9 scale, GLXMA (Glycine max [1]) | herbicidal effects on a 0-9 scale, BEAVA (Beta vulgaris [2]) | herbicidal effects on a 0-9 scale, ECHCG (Echinochloa crus-galli [3]) | herbicidal effects on a 0-9 scale, SINAL (Sinapsis alba [4]) | herbicidal effects on a 0-9 scale, ORYSA (Oryza sativa [5]) | herbicidal effects on a 0-9 scale, ZEAMX (Zea mays [6]) | herbicidal effects on a 0-9 scale, AVEFA (Avena fatua [7]) | herbicidal effects on a 0-9 scale, LIUUT (Linum usitatissimum [8]) | herbicidal effects on a 0-9 scale, BEAVA (Beta vulgaris [9]) | herbicidal effects on a 0-9 scale, ECHCG (Echinochloa crus-galli [10]) | herbicidal effects on a 0-9 scale, SINAL (Sinapsis alba [11]) | herbicidal effects on a 0-9 scale, GLXMA (Glycine max [12]) | herbicidal effects on a 0-9 scale, ORYSA (Oryza sativa [13]) | herbicidal effects on a 0-9 scale, ZEAMX (Zea mays [14]) | herbicidal effects on a 0-9 scale, AVEFA (Avena fatua [15]) | herbicidal effects on a 0-9 scale, LIUUT (Linum usitatissimum [16])
1 | C=CCNC(=O)c1nc(-c2ccc(F)cc2)ns1 [Example 18] | 6 | 8 | 0 | 9 | 0 | 0 | 2 | 5 | 0 | 0 | 0 | 0 | 0 | 0 | 0 | 0
2 | C[C@H](NC(=O)c1nc(-c2ccccc2)ns1)c1ccccc1 [Example 5] | 4 | 5 | 8 | 9 | 0 | 2 | 6 | 7 | 4 | 0 | 0 | 0 | 0 | 0 | 0 | 0
3 | CC(NC(=O)c1nc(C(C)(C)C)ns1)c1cccs1 (racemic) [Example 6, (R/S)-3-tert-Butyl-[1,2,4]thiadiazole-5-carboxylic acid, [1-(2-thienyl)ethyl]amide] | 7 | 9 | 9 | 9 | 2 | 0 | 7 | 9 | 9 | 0 | 7 | 0 | 0 | 0 | 0 | 3
4 | CC(NC(=O)c1nc(-c2cccc(C(F)(F)F)c2)ns1)c1cccs1 (racemic) [Example 21, (R/S)-3-(3-Trifluoromethylphenyl)-[1,2,4]thiadiazole-5-carboxylic acid, [1-(2-thienyl)ethyl]amide] | 7 | 8 | 8 | 9 | 0 | 0 | 7 | 7 | 0 | 0 | 0 | 0 | 0 | 0 | 0 | 0
5 | CC(NC(=O)c1nsc(-c2ccc(Cl)cc2)n1)c1cccs1 (racemic) [Example 23, (R/S)-5-(4-Chlorophenyl)-[1,2,4]thiadiazole-3-carboxylic acid, [1-(2-thienyl)ethyl]amide] | 7 | 9 | 8 | 9 | 0 | 0 | 4 | 7 | 0 | 0 | 0 | 0 | 0 | 0 | 0 | 0
6 | C[C@H](NC(=O)c1nsc(-c2ccc(Cl)cc2)n1)c1ccccc1 [Example 24] | 5 | 8 | 2 | 8 | 0 | 0 | 0 | 5 | 0 | 0 | 0 | 0 | 0 | 0 | 0 | 0
7 | CC(C)Cc1nsc(C(=O)NCc2cccs2)n1 [Example 11] | 2 | 4 | 2 | 7 | 0 | 0 | 0 | 2 | 0 | 0 | 0 | 0 | 0 | 0 | 0 | 0
